The test system of this data set is cultured hippocampal neurons. The experiment in a line: Whole-cell patch clamp recordings of cultured hippocampal neurons. The data set is classed as cell-based, mice. The text has this: Whole-cell patch clamp recordings were made at room temperature from cultured hippocampal neurons plated on coverslips secured with a platinum ring in a recording chamber (Open access chamber-1, Science Products GmbH, Hofheim, Germany) mounted on a fixed-stage upright microscope (BX51WI, Olympus, Hamburg, Germany). Differential interference contrast optics, infrared illumination and a CCD camera (PCO, Visitron Systems, Puchheim, Germany) connected to a contrast enhancement unit (Argus, Hamamatsu, Herrsching am Ammersee, Germany) were used to view neurons on a video monitor. Recordings were made with a Multiclamp 700A amplifier, digitized through a Digidata 1322A A/D converter and acquired using pClamp software (Molecular Devices, CA, USA). All membrane potentials have been corrected for the calculated junction potential of −11 mV (JPCalc program by Dr. Peter H. Barry). mEPSCs and whole-cell AMPA (10 μM, 6 ml/min, Biotrend) responses were recorded as known in the art except for the solutions and that a holding potential of −71 mV was used and both TTX (1 μM, Biotrend, Cologne, Germany) and gabazine (5 μM, Biotrend) were included in the ACSF. TTX was applied before gabazine to prevent the induction of action potential bursting. Access (range: 7-18 MU) and membrane resistance (see Table 1) were monitored before and after mEPSC recordings and data was rejected if changes greater than 20% occurred.
Patch electrodes (3-4 MU) were made from borosilicate glass (1.5 mm, WPI, Sarasota, Fla., USA) and filled with intracellular solution (containing in mM: KCH3SO4, 145; NaCl, 8; HEPES, 10; K2-phosphocreatine, 10; Mgt-ATP, 4; Na3-GTP, 0.3; pH 7.35 with KOH). The extracellular solution was an artificial cerebrospinal fluid (ACSF, in mM: NaCl, 125; KCl, 3.5; MgCl2, 1.3; NaH2PO4, 1.2; CaCl2, 2.4; glucose, 25; NaHCO3, 26; gassed with 95% O2 and 5% CO2).
(In general: Patch clamp records ionic current or voltage across a cell membrane.)

As for “shVEGFD: shRNA targeting mouse VEGFD mRNA (GGGCTTCAGGAGCGAACAT; SEQ ID NO: 1), expressed from rAAV vector or plasmid with U6 promoter”, where the note is “bath applied AMPA 10 μM”, the AMPA response amplitudes result was “smaller”. Moreover, for the setting “infected neurons”, the “AP induc thresh (current injection required to induce an action potential)” value turned out to be 162 ± 14 pA, the “AP thresh (membrane potential at which action potentials initiate)” value was −46.5 ± 1.1 mV, the “Cm (membrane capacitance)” value turned out to be 68.3 ± 3.3 pF and the “Rm (membrane resistance)” value was found to be 316 ± 19 MΩ. In addition, where the note is “infected neurons”, the “Vrest (resting membrane potential)” value is −82.9 ± 1.9 mV, the “mEPSC τ decay” value is on record as 4.14 ± 0.15 ms and the “mEPSC τ rise” value was 2.91 ± 0.10 ms. For the setting “transfected neurons”, the “AP induc thresh (current injection required to induce an action potential)” value is 149 ± 14 pA, the “AP thresh (membrane potential at which action potentials initiate)” value is −45.6 ± 1.6 mV, the “Cm (membrane capacitance)” value came out at 59.7 ± 3.8 pF and the “Rm (membrane resistance)” value is recorded as 352 ± 29 MΩ. Under “transfected neurons”, the “Vrest (resting membrane potential)” value is listed as −79.7 ± 2.0 mV, the “mEPSC τ decay” value amounted to 3.82 ± 0.26 ms and the “mEPSC τ rise” value turned out to be 2.82 ± 0.23 ms. For the same substance, under “versus respective shSCR expressing controls”, the “mEPSC inter-event intervals (IEIs, 1/frequency)” value is listed as “longer mEPSC inter-event intervals”.

The values above are taken from patent US20120308554A1, “VEGF-D/VEGFR2/3-MEDIATED REGULATION OF DENDRITES” (UNIVERSITAT HEIDELBERG, priority 2011, published 2012).
